# From the supplement of paper PMC11003180
# How the values were obtained:
# Test in all cases: drug sensitivity score (DSS) from 5-dose viability curve (DSS (area-based score, 0 = no response)); higher = more sensitive (stronger viability inhibition); extreme values may be limits of the assay
# [1] = tested on: MDCK wild-type - doxycycline; details: doxycycline: none; 72 h
# Summary of the method: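 For 72 h at 37 °C, parental MDCK cells (no doxycycline, 2000 cells/well) were incubated on 384-well plates pre-spotted with 528 oncology drugs at five doses from 1 to 10,000 nM. CellTiter-Glo luminescence served as the viability readout, scaled per plate between vehicle and positive controls. The Breeze pipeline then fitted dose-response curves to yield drug sensitivity scores.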
# [2] = tested on: MDCK p60AmotL2-inducible + doxycycline (p60AmotL2 expressing); details: doxycycline: 10 ng/mL; 72 h
# Summary of the method: (§1)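 Parental MDCK cells and MDCK cells with doxycycline-inducible p60AmotL2, both given doxycycline at 10 ng/mL in the medium before plating, were dispensed at 2000 cells/well onto pre-spotted 384-well plates. The plates held an oncology library of 528 drugs at five doses (1-10,000 nM) and were incubated 72 h at 37 °C. Viability was read as CellTiter-Glo luminescence and scaled per plate between vehicle and positive controls. Drug sensitivity scores came from dose-response curve fits in the Breeze pipeline.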
# [3] = tested on: MDCK wild-type + doxycycline; details: doxycycline: 10 ng/mL; 72 h
# Summary of the method: as §1
SMILES,drug sensitivity score [1],drug sensitivity score [2],drug sensitivity score [3]
CC(O)c1cc(C(=O)N[C@@H](C)Cn2ccc(-c3ccc(C#N)c(Cl)c3)n2)n[nH]1 (some centres not stated) [ODM-201],0,0,0
CC(=O)c1cnc2ccc(-c3cc(Cl)c(O)c(Cl)c3)nc2c1N[C@H]1CC[C@H](CN(C)C)CC1 [OTS167],17.2,18.8,19.4
O=C(c1cc(Cc2n[nH]c(=O)c3ccccc23)ccc1F)N1CCN(C(=O)C2CC2)CC1 [Olaparib],0,0.2,0
C=CC(=O)Nc1cccc(Oc2nc(Nc3ccc(N4CCN(C)CC4)cc3)nc3ccsc23)c1 [Olmutinib],0,1.5,0
COC(=O)C[C@](O)(CCCC(C)(C)O)C(=O)O[C@@H]1C(OC)=C[C@]23CCCN2CCc2cc4c(cc2[C@H]13)OCO4 [Omacetaxine],33.5,33.6,32.4
CC1(C)CC[C@]2(NC(=O)C(C)(F)F)CC[C@]3(C)[C@H](C(=O)C=C4[C@@]5(C)C=C(C#N)C(=O)C(C)(C)[C@@H]5CC[C@]43C)[C@@H]2C1 [Omaveloxolone],17,16.7,16.3
COc1ncc(-c2ccc3nccc(-c4ccnnc4)c3c2)cc1NS(=O)(=O)c1ccc(F)cc1F [Omipalisib],14.5,20.2,14.2
CC(C)c1cc(C(=O)N2Cc3ccc(CN4CCN(C)CC4)cc3C2)c(O)cc1O [Onalespib],16.2,18.8,18.2
COC[C@H](NC(=O)c1cnc(C)s1)C(=O)N[C@@H](COC)C(=O)N[C@@H](Cc1ccccc1)C(=O)[C@@]1(C)CO1 [Oprozomib],17.9,17.4,17.6
CNC(=O)c1ccc2cc([C@@]3(O)CCn4cncc43)ccc2c1 [Orteronel],0,0,0
C=CC(=O)Nc1cc(Nc2nccc(-c3cn(C)c4ccccc34)n2)c(OC)cc1N(C)CCN(C)C [Osimertinib],4.6,10.9,6.4
O=C(O)C(=O)O.[NH-][C@@H]1CCCC[C@H]1[NH-].[Pt+2] [Oxaliplatin],8.1,12.3,10.2
C=CCc1cccc(/C=N/NC(=O)CN2CCN(Cc3ccccc3)CC2)c1O [PAC-1],2.6,4,4.2
O=C(Nc1cccnc1)N1CCC(Cc2cccc(Oc3ccc(C(F)(F)F)cn3)c2)CC1 [PF-3845],0,0.8,0
COc1ccccc1S(=O)(=O)Nc1ccc2c(c1)CN(C)C(=O)N2 [PFI-1],0.3,5.3,2.4
CN1CCN(c2cc(C(=O)Nc3ccc4c(c3)-c3c(c(C(N)=O)nn3-c3ccc(F)cc3)CC4)c(Cl)cn2)CC1 [PHA 408],0,0.2,0
O=C(Nc1cc(Cl)cc2c1[nH]c1cnccc12)c1cccnc1 [PS-1145],0,0,0
COc1cc(Br)c(Nc2nc(-c3c(C)nc4ncccn34)cs2)c(Br)c1 [PTC-209],9.6,13.8,11.4
CC(=O)O[C@H]1C(=O)[C@@]2(C)[C@H]([C@H](OC(=O)c3ccccc3)[C@]3(O)C[C@H](OC(=O)[C@H](O)[C@@H](NC(=O)c4ccccc4)c4ccccc4)C(C)=C1C3(C)C)[C@]1(OC(C)=O)CO[C@@H]1C[C@@H]2O [Paclitaxel],15.8,21.8,19.4
C1=N/C2=N/c3ccc(OCCN4CCCC4)c(c3)COC/C=C/COCc3cccc(c3)C(=C1)N2 [Pacritinib],10.1,10,9.3
CC(=O)c1c(C)c2cnc(Nc3ccc(N4CCNCC4)cn3)nc2n(C2CCCC2)c1=O [Palbociclib],0.9,4.3,0.9
COc1ccc(COc2cc3oc(=O)c4cc(C(C)O)ccc4c3cc2OC)cc1 (configuration not stated) [Palomid-529],0,0.1,0

SMILES,drug sensitivity score [1],drug sensitivity score [2],drug sensitivity score [3]
Cc1[nH]c2ccccc2c1CCNCc1ccc(/C=C/C(=O)NO)cc1 [Panobinostat],15.2,15,12.5
Cc1ccc(Nc2nccc(N(C)c3ccc4c(C)n(C)nc4c3)n2)cc1S(N)(=O)=O [Pazopanib],0,0,0
Nc1nc2[nH]cc(CCc3ccc(C(=O)N[C@@H](CCC(=O)O)C(=O)O)cc3)c2c(=O)[nH]1 [Pemetrexed],5.5,7.1,5.3
OC[C@H]1O[C@@H](n2cnc3c2N=CNC[C@H]3O)C[C@@H]1O [Pentostatin],0,0,0
CCCCCCCCCCCCCCCCCCOP(=O)([O-])OC1CC[N+](C)(C)CC1 [Perifosine],0,0,0
NS(=O)(=O)OC[C@@H]1C[C@@H](n2ccc3c(N[C@H]4CCc5ccccc54)ncnc32)C[C@@H]1O [Pevonedistat],9,11.7,9.7
FC(F)(F)c1ccc(CNc2ccc(Cc3c[nH]c4ncc(Cl)cc34)cn2)cn1 [Pexidartinib],0,0.1,0
CS(=O)(=O)N1CCN(Cc2cc3nc(-c4cccc5[nH]ncc45)nc(N4CCOCC4)c3s2)CC1 [Pictilisib],6.9,14.4,8.4
CC[C@@H]1C(=O)OC[C@@H]1Cc1cncn1C [Pilocarpine],0,0,0
CC(C)N(C[C@H]1O[C@@H](n2cnc3c(N)ncnc32)[C@H](O)[C@@H]1O)[C@H]1C[C@@H](CCc2nc3cc(C(C)(C)C)ccc3[nH]2)C1 [Pinometostat],0,0,0
Cc1ccc(=O)n(-c2ccccc2)c1 [Pirfenidone],0,0,0
NCCNc1ccc(NCCN)c2c1C(=O)c1ccncc1C2=O [Pixantrone],0,0,0
c1cc(CN2CCCNCCNCCCNCC2)ccc1CN1CCCNCCNCCCNCC1 [Plerixafor],0,0.1,0
CO[C@H](C(=O)[C@@H](O)[C@@H](C)O)[C@@H]1Cc2cc3cc(O[C@H]4C[C@@H](O[C@@H]5C[C@@H](O)[C@H](O)[C@@H](C)O5)[C@H](O)[C@@H](C)O4)c(C)c(O)c3c(O)c2C(=O)[C@H]1O[C@H]1C[C@@H](O[C@@H]2C[C@@H](O)[C@@H](O[C@@H]3C[C@](C)(O)[C@H](O)[C@@H](C)O3)[C@@H](C)O2)[C@H](O)[C@@H](C)O1 [Plicamycin],10.4,14.1,11.3
Nc1cccc2c1C(=O)N(C1CCC(=O)NC1=O)C2=O (configuration not stated) [Pomalidomide],0,0,0
C=CC(=O)N1CCC(Oc2cc3c(Nc4ccc(Cl)c(Cl)c4F)ncnc3cc2OC)CC1 [Poziotinib],9.2,27.9,14.3
CCCCc1nc2cc(/C=C/C(=O)NO)ccc2n1CCN(CC)CC [Pracinostat],15,17.7,15.9
CC[C@H](C)C(=O)O[C@H]1C[C@H](O)C=C2C=C[C@H](C)[C@H](CC[C@@H](O)C[C@@H](O)CC(=O)O)[C@H]21 [Pravastatin],0,0,0
C[C@]12C=CC(=O)C=C1CC[C@@H]1[C@@H]2[C@@H](O)C[C@@]2(C)[C@H]1CC[C@]2(O)C(=O)CO [Prednisolone],1.2,0,0
COc1cccc(OCCCN)c1-c1cc(Nc2cnc(C#N)cn2)n[nH]1 [Prexasertib],0.8,3.5,2.2
Cn1cc(CNCC2CCN(c3ncc(C(=O)NO)cn3)CC2)c2ccccc21 [Quisinostat],9.8,12.7,8.6
CC(C)(C)c1cc(NC(=O)Nc2ccc(-c3cn4c(n3)sc3cc(OCCN5CCOCC5)ccc34)cc2)no1 [Quizartinib],3.3,3.9,3
